Assay results reported in ChEMBL document CHEMBL1151621, “Correlation of the anticholinesterase and molluscicidal activity of the latex of Euphorbia royleana on the snail Lymnaea acuminata” (1984).

Tests used:
Lymnaea [1] = experiment: Inhibition of acetylcholinesterase from nerve tissue of Lymnaea acuminata at 0.23 ug w/v relative to control; design: scale not given: the % may be the effect or the level left
Lymnaea [2] = experiment: In vivo inhibition of acetylcholinesterase from nerve tissue of Lymnaea acuminata at 14 mg/L relative to control; type: functional; design: scale not given: the % may be the effect or the level left
Lymnaea [3] = experiment: Inhibition of acetylcholinesterase from nerve tissue of Lymnaea acuminata at 2 ug w/v relative to control; design: scale not given: the % may be the effect or the level left
Lymnaea [4] = experiment: In vivo inhibition of acetylcholinesterase from nerve tissue of Lymnaea acuminata at 27 mg/L relative to control; type: functional; design: scale not given: the % may be the effect or the level left
Lymnaea [5] = experiment: Inhibition of acetylcholinesterase from nerve tissue of Lymnaea acuminata at 0.75 ug w/v relative to control; design: scale not given: the % may be the effect or the level left
Lymnaea [6] = experiment: Inhibition of acetylcholinesterase from nerve tissue of Lymnaea acuminata at 1 ug w/v relative to control; design: scale not given: the % may be the effect or the level left
Lymnaea [7] = experiment: In vivo inhibition of acetylcholinesterase from nerve tissue of Lymnaea acuminata at 2.5 mg/L relative to control; type: functional; design: scale not given: the % may be the effect or the level left
Lymnaea [8] = experiment: Molluscicidal activity against Lymnaea acuminata within 24 hrs; type: functional
Lymnaea [9] = experiment: In vivo inhibition of acetylcholinesterase from nerve tissue of Lymnaea acuminata at 30 mg/l relative to control; type: functional; design: scale not given: the % may be the effect or the level left
Lymnaea [10] = experiment: Inhibition of acetylcholinesterase from nerve tissue of Lymnaea acuminata at 0.5 ug w/v relative to control; design: scale not given: the % may be the effect or the level left

CNC(=O)Oc1ccc2c(c1)[C@]1(C)CCN(C)[C@@H]1N2C
Activity (Lymnaea [1]): 13%

CNC(=O)Oc1cccc2ccccc12 [CARBARIL]
Activity (Lymnaea [2]): 73%
Activity (Lymnaea [3]): 67%

COP(=S)(OC)SCC(=O)N(C)C=O [FORMOTHION]
Activity (Lymnaea [4]): 79%
Activity (Lymnaea [5]): 47%

CNC(=O)Oc1cc(C)c(N(C)C)c(C)c1 [MEXACARBATE]
Activity (Lymnaea [6]): 39%
Activity (Lymnaea [7]): 53%

O=C(Nc1ccc([N+](=O)[O-])cc1Cl)c1cc(Cl)ccc1O [NICLOSAMIDE]
Activity (Lymnaea [8]): 63%

CCOP(=S)(OCC)SCSCC [PHORATE]
Activity (Lymnaea [9]): 67%
Activity (Lymnaea [10]): 42%
